Starred links: 1 amine or outer side, 2 acyl side, 3 side chain; linkers in the order of their positions; H or OH if unused. Non-standard residues stand in square brackets, D forms with d. Residues, ends and D or L forms follow the SMILES beside them. Nva(5-(4-Bn-piperidin-1-yl)) = N[C@@H](CCCN1CCC(Cc2ccccc2)CC1)C(=O)O; X5 = O=C1[C@@H](N[*:1])Cc2ccccc2CN1CCCC(=O)[*:2]; X1 = O=C1[C@@H](N[*:1])Cc2ccccc2CN1CCC(=O)[*:2]; Dmt = Cc1cc(O)cc(C)c1C[C@H](N)C(=O)O; NMeβAla = CN(CCC(=O)[*:2])[*:1]
Legend:
NPFF2R [1] = biological target: T1, NPFF2R (Homo sapiens, UniProt Q9Y5X5); test: Radioligand competition binding with [125I]-1-DMe-NPFF; set-up: expressed in transfected cells; HEK293-Glo20F cells (cAMP)
human MOPr [2] = biological target: T2, human MOPr (Homo sapiens, UniProt P35372); test: BRET1 β-arrestin-2 recruitment assay; format: cell-based; set-up: expressed in transfected cells; host or cells: HEK293 cells stably expressing eYFP-β-arrestin-2, transiently transfected with the Rluc8-MOP plasmid; conditions: for EC50: Table 3B, — = non-detectable recruitment, read-out: MOPr (β-arrestin-2) EC50; for Emax: read-out: MOPr (β-arrestin-2) Emax;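 for Emax: Emax relative to maximal DAMGO-induced BRET as 100%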;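 for MOPr (β-arrestin-2) Emax: Emax relative to maximal DAMGO-induced BRET as 100%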
Description: Peak response amplitudes were normalized to basal and maximal (cells permeabilized with 20 μM digitonin) fluorescence levels. 1.8. β-Arrestin-2 recruitment assay The β-arrestin-2 recruitment assay was performed as described [34; 45] with minor modifications. Briefly, two days prior the experiment, HEK293 cells stably expressing eYFP-tagged β-arrestin-2 were transfected with the plasmid encoding Rluc8-MOP receptor. β-Arrestin-2 recruitment was measured at 37° C. in presence of 5 μM Coelenterazine H, 5 min after agonist addition.

human NPFF1R [3] = biological target: T3, human NPFF1R (Homo sapiens, UniProt Q9GZQ6); test: Radioligand competition binding with [125I]-1-DMe-NPFF; set-up: expressed in transfected cells; HEK293-Glo20F cells (cAMP)
human MOPr [4] = biological target: T2, human MOPr; test: cell-based; format: cell-based; set-up: expressed in transfected cells; HEK293-Glo20F cells (cAMP); conditions: for EC50: read-out: MOPr (cAMP) EC50; for Emax: read-out: MOPr (cAMP) Emax
Description: (§1) Stimulation by endogenous RF-amide peptides or test compounds for [^35S]-GTPγS binding to membranes from CHO cells expressing human NPFF1R or NPFF2R, were examined as reported. 1.6. Glo-Sensor cAMP Assay cAMP accumulation assay was essentially done as described with the following modifications: HEK293 cells stably expressing cAMP Glosensor-20F were used, with or without additional stable expression of each individual opioid receptor or NPFF1R. The cAMP responses were measured in presence of D-luciferin (1 mM).

human MOPr [5] = biological target: T2, human MOPr; test: Radioligand competition binding with [3H]-diprenorphine; set-up: expressed in transfected cells; HEK293-Glo20F cells (cAMP)
human NPFF1R [6] = biological target: T3, human NPFF1R; test: [35S]-GTPγS binding assay; format: biochemical; set-up: expressed in transfected cells; conditions: for Emax: relative to RFRP3
Description: as §1

NPFF2R [7] = biological target: T1, NPFF2R; test: [35S]-GTPγS binding assay; format: biochemical; set-up: expressed in transfected cells
Description: as §1

[8] = Table 3a, HEK293-Glo20F-hMOPr cells
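Throughout, for MOPr (cAMP) Emax: Emax relative to DAMGO as 100%.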

T1 sequence (Q9Y5X5 whole entry): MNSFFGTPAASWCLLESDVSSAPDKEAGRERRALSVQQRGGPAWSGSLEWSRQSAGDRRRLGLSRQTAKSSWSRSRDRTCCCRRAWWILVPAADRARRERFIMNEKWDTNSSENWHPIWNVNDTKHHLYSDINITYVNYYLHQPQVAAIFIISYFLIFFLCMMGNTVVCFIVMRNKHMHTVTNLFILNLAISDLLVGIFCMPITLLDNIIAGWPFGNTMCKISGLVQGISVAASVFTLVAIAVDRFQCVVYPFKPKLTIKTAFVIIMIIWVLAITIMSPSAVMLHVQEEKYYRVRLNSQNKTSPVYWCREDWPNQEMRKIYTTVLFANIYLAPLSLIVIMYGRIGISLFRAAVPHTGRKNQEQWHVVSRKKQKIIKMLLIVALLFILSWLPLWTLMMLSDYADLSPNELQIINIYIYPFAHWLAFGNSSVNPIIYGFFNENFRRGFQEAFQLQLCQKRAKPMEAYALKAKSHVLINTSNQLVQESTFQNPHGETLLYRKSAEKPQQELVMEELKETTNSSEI
T2 sequence (P35372 whole entry): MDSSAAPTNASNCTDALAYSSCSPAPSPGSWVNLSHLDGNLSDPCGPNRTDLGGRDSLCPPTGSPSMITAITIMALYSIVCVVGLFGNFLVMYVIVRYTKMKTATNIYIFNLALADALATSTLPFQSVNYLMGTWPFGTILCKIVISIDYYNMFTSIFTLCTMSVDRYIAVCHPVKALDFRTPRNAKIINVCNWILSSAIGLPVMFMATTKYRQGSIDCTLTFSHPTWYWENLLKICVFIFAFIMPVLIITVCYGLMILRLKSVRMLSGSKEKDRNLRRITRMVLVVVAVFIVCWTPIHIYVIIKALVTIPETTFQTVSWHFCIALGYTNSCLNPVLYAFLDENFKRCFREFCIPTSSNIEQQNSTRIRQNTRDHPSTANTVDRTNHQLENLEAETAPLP
T3 sequence (Q9GZQ6 whole entry): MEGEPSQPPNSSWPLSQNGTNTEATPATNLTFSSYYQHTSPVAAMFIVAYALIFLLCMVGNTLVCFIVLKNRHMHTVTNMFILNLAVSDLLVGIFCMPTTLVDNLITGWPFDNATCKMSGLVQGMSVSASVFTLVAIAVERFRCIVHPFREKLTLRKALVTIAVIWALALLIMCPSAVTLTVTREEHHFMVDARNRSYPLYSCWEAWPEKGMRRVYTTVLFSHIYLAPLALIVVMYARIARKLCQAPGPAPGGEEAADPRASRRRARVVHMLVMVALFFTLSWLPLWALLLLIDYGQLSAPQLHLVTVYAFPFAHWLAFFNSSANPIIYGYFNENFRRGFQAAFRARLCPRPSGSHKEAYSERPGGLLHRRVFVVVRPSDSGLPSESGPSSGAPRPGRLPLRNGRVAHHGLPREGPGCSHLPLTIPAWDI

| SMILES | IC50 (NPFF2R [1]) [nM] | EC50 (human MOPr [2]) [nM] | Emax (human MOPr [2]) [%] | IC50 (human NPFF1R [3]) [nM] | EC50 (human MOPr [4]; Table 3B) [nM] | Emax (human MOPr [4]) [%] | β-arrestin-2 recruitment (human MOPr [2]; in words) | MOPr-induced G protein activation (human MOPr [4]; in words) | Ki (NPFF2R [1]) [nM] | Ki (human MOPr [5]) [nM] | Ki (human NPFF1R [3]) [nM] | EC50 (human NPFF1R [6]) [nM] | Emax (human NPFF1R [6]) [%] | EC50 (NPFF2R [7]) [nM] | Emax (NPFF2R [7]) [%] | EC50 (human MOPr [4]; [8]) [nM] |
| --- | --- | --- | --- | --- | --- | --- | --- | --- | --- | --- | --- | --- | --- | --- | --- | --- |
| Cc1cc(O)cc(C)c1C[C@H](N)C(=O)N[C@H](CCCNC(=N)N)C(=O)N[C@H]1Cc2ccccc2CN(CCC(=O)N[C@@H](CCCN2CCC(Cc3ccccc3)CC2)C(=O)N[C@@H](Cc2ccc(O)cc2)C(N)=O)C1=O [DP0004, H-Dmt-D-Arg-Aba-β-Ala-Bpa-Tyr-NH2] (H-[Dmt][dR][X1][Nva(5-(4-Bn-piperidin-1-yl))]Y-NH2) | < 50 | 126 | 64 | 50 to 500 | 4.2 ± 0.7 | 88 ± 4 | – | – | – | – | – | – | – | – | – | – |
| Cc1cc(O)cc(C)c1C[C@H](N)C(=O)N[C@H](CCCNC(=N)N)C(=O)N[C@H]1Cc2ccccc2CN(CCC(=O)N[C@@H](CCCN2CCC(Cc3ccccc3)CC2)C(=O)N[C@@H](Cc2c[nH]c3ccccc23)C(N)=O)C1=O [DP0005, H-Dmt-D-Arg-Aba-β-Ala-Bpa-Trp-NH2] (H-[Dmt][dR][X1][Nva(5-(4-Bn-piperidin-1-yl))]W-NH2) | < 50 | 98 | 42 | ~50 | 7.9 ± 0.5 | 81 ± 0.6 | – | – | – | – | – | – | – | – | – | – |
| Cc1cc(O)cc(C)c1C[C@H](N)C(=O)N[C@H](CCCNC(=N)N)C(=O)N[C@H]1Cc2c(ccc3ccccc23)CN(CC(=O)N[C@@H](CCCN2CCC(Cc3ccccc3)CC2)C(=O)N[C@@H](Cc2ccccc2)C(N)=O)C1=O [DP0012, H-Dmt-D-Arg-1AnaGly-Bpa-Phe-NH2] | < 40 | 650 | 22 | < 40 | 15.1 ± 0.4 | 90 ± 2 | – | – | – | – | – | – | – | – | – | – |
| Cc1cc(O)cc(C)c1C[C@H](N)C(=O)N[C@H](CCCNC(=N)N)C(=O)N[C@@H](Cc1ccccc1)C(=O)N(C)CCC(=O)N[C@@H](CCCN1CCC(Cc2ccccc2)CC1)C(=O)N[C@@H](Cc1ccccc1)C(N)=O [DP0013, H-Dmt-D-Arg-Phe-N(Me)-β-Ala-Bpa-Phe-NH2] (H-[Dmt][dR]F[NMeβAla][Nva(5-(4-Bn-piperidin-1-yl))]F-NH2) | ~40 | 20.5 | 101 | < 40 | 0.53 ± 0.004 | 115 ± 4 | – | – | – | – | – | – | – | – | – | – |
| Cc1cc(O)cc(C)c1C[C@H](N)C(=O)N(C)[C@H](C)C(=O)N[C@H]1Cc2c(ccc3ccccc23)CN(CC(=O)N[C@@H](CCCN2CCC(Cc3ccccc3)CC2)C(=O)N[C@@H](Cc2ccccc2)C(N)=O)C1=O [DP0014, H-Dmt-N(Me)-D-Ala-1AnaGly-Bpa-Phe-NH2] | ~40 | – | – | < 40 | 5.3 | 76 | non-detectable | significant | – | – | – | – | – | – | – | – |
| Cc1cc(O)cc(C)c1C[C@H](N)C(=O)N[C@H](CCCNC(=N)N)C(=O)N[C@H]1Cc2ccccc2CN(CCCC(=O)N[C@@H](CCCN2CCC(Cc3ccccc3)CC2)C(=O)N[C@@H](Cc2ccccc2)C(N)=O)C1=O [DP0018, H-Dmt-D-Arg-AbaGABA-Bpa-Phe-NH2] (H-[Dmt][dR][X5][Nva(5-(4-Bn-piperidin-1-yl))]F-NH2) | < 40 | 95.8 | 31 | 40 to 400 | 5.5 | 108 | – | – | – | – | – | – | – | – | – | – |
| Cc1cc(O)cc(C)c1C[C@H](N)C(=O)N[C@H](CCCNC(=N)N)C(=O)N[C@@H](Cc1ccccc1)C(=O)NCCC(=O)N[C@@H](CCCN1CCC(Cc2ccccc2)CC1)C(=O)N[C@@H](Cc1ccccc1)C(N)=O [DP0019, H-Dmt-D-Arg-Phe-β-Ala-Bpa-Phe-NH2] (HELM PEPTIDE1{[Cc1cc(O)cc(C)c1C[C@H](N)C(=O)[*:2]].[dR].F.[bAla].[O=C([C@H](CCCN1CCC(Cc2ccccc2)CC1)N[*:1])[*:2]].F.[am]}$$$$V2.0) | 40 to 400 | 162 | 53 | 40 to 400 | 4 ± 0.4 | 101 ± 1 | – | – | – | – | – | – | – | – | – | – |
| Cc1cc(O)cc(C)c1C[C@H](N)C(=O)N[C@H](CCCNC(=N)N)C(=O)N[C@H]1Cc2ccccc2CN(CCCC(=O)N[C@@H](CCCN2CCC(Cc3ccccc3)CC2)C(=O)N[C@H](C(N)=O)C(C)C)C1=O [DP0020, H-Dmt-D-Arg-AbaGABA-Bpa-Val-NH2] (H-[Dmt][dR][X5][Nva(5-(4-Bn-piperidin-1-yl))]V-NH2) | 40 to 400 | 149 | 53 | 40 to 400 | 6.3 | 101 | – | – | – | – | – | – | – | – | – | – |
| Cc1cc(O)cc(C)c1C[C@H](N)C(=O)N[C@H](CCCNC(=N)N)C(=O)N[C@H]1Cc2c(ccc3ccccc23)CN(CC(=O)N[C@@H](CCCN2CCC(Cc3ccccc3)CC2)C(=O)N[C@H](C(N)=O)C(C)C)C1=O [DP0021, H-Dmt-D-Arg-1AnaGly-Bpa-Val-NH2] | < 40 | 109 ± 57 | 22 | 40 to 400 | 2.8 ± 0.4 | 102 ± 3 | – | – | – | – | – | – | – | – | – | – |
| Cc1cc(O)cc(C)c1C[C@H](N)C(=O)N[C@H](CCCNC(=N)N)C(=O)N[C@H]1Cc2ccccc2CN(CCCC(=O)N[C@@H](CCCN2CCC(Cc3ccccc3)CC2)C(=O)N[C@@H](Cc2c[nH]c3ccccc23)C(N)=O)C1=O [DP0022, H-Dmt-D-Arg-AbaGABA-Bpa-Trp-NH2] (H-[Dmt][dR][X5][Nva(5-(4-Bn-piperidin-1-yl))]W-NH2) | < 40 | 617 ± 205 | 30 ± 0.7 | ~40 | 5 | 90 | – | – | – | – | – | – | – | – | – | – |
| Cc1cc(O)cc(C)c1C[C@H](N)C(=O)N[C@H](CCCNC(=N)N)C(=O)N[C@H]1Cc2ccccc2CN(CC(=O)N[C@@H](CCCNC(=N)N)C(=O)N[C@@H](Cc2ccccc2)C(N)=O)C1=O [KGFF01, H-Dmt-D-Arg-Aba-Gly-Arg-Phe-NH2] | – | – | – | – | – | 101 ± 7 | – | – | 1.2 ± 0.5 | 0.59 ± 0.21 | 57 ± 10 | 155 ± 25 | 44 ± 8 | 128 ± 23 | 95 ± 6 | 2.4 ± 1 |
| Cc1cc(O)cc(C)c1C[C@H](N)C(=O)N[C@H](CCCNC(=N)N)C(=O)N[C@H]1Cc2ccccc2CN(CC(=O)N[C@@H](CCCNC(=N)N)C(=O)N[C@@H](Cc2ccccc2)C(=O)O)C1=O [KGFF02, H-Dmt-D-Arg-Aba-Gly-Arg-Phe-OH] | – | – | – | – | – | 89 ± 2 | – | – | 251 ± 25 | 0.59 ± 0.15 | 2540 | – | – | – | – | 1.5 ± 0.7 |
| Cc1cc(O)cc(C)c1C[C@H](N)C(=O)N[C@H](CCCNC(=N)N)C(=O)N[C@@H](Cc1ccccc1)C(=O)N[C@@H](CCCN)C(=O)N[C@@H](Cc1ccccc1)C(N)=O [KGFF05, H-Dmt-D-Arg-Phe-Orn-Phe-NH2] (HELM PEPTIDE1{[Cc1cc(O)cc(C)c1C[C@H](N)C(=O)[*:2]].[dR].F.[Orn].F.[am]}$$$$V2.0) | – | – | – | – | – | 94 ± 2 | – | – | 360 ± 50 | 3.2 ± 1.1 | 3100 | – | – | – | – | 59.3 ± 24.5 |
| Cc1cc(O)cc(C)c1C[C@H](N)C(=O)N[C@@H](CCCNC(=N)N)C(=O)N[C@@H](Cc1ccccc1)C(N)=O [KGFF06, H-Dmt-Arg-Phe-NH2] (HELM PEPTIDE1{[Cc1cc(O)cc(C)c1C[C@H](N)C(=O)[*:2]].R.F.[am]}$$$$V2.0) | – | – | – | – | – | – | – | – | 15.9 ± 1.8 | 46 ± 22 | 147 ± 20 | – | – | – | – | 2300 |
| Cc1cc(O)cc(C)c1C[C@H](N)C(=O)N[C@H](CCCNC(=N)N)C(=O)N[C@H]1Cc2ccccc2CN(CCC(=O)N[C@@H](CCCN2CCCCC2)C(=O)N[C@@H](Cc2ccccc2)C(N)=O)C1=O [KGFF08, H-Dmt-D-Arg-Aba-β-Ala-Apa-Phe-NH2] | – | – | – | – | – | 102 ± 3 | – | – | 3.9 ± 0.1 | 0.94 ± 0.19 | – | – | 23 ± 1 | 574 ± 129 | 97 ± 2 | 9.9 ± 2 |
| Cc1cc(O)cc(C)c1C[C@H](N)C(=O)N[C@@H](CCCN1CCCCC1)C(=O)N[C@@H](Cc1ccccc1)C(N)=O [KGFF10, H-Dmt-Apa-Phe-NH2] | – | – | – | – | – | 91 ± 10 | – | – | 2100 | 68 ± 48 | > 10000 | – | – | – | – | 598 ± 35 |
| Cc1cc(O)cc(C)c1C[C@H](N)C(=O)N[C@@H](CCCN1CCC(Cc2ccccc2)CC1)C(=O)N[C@@H](Cc1ccccc1)C(N)=O [KGFF11, H-Dmt-Bpa-Phe-NH2] | – | – | – | – | – | – | – | – | 406 ± 95 | > 10000 | 2720 | – | – | – | – | > 10000 |

Source: US20210002231A1 (Centre National de la Recherche Scientifique, priority 2018, published 2021)
